The source of these data is ChEMBL document CHEMBL5465560, “Selectivity Literature for EUbOPEN Chemogenomic Library” (2024).

The target of assay [1] is Mitogen-activated protein kinase kinase kinase 20 (Homo sapiens) (UniProt Q9NYL2). The note with it: at 10 µM.
Assay [2] deals with D(2) dopamine receptor (Homo sapiens, UniProt P14416). Description: Selectivity interaction (GPCR panel (PDSP screen)) EUB0001079a DRD2. The note with it: at 10 µM.
The target in assay [3] is Serine/threonine-protein kinase 38-like (Homo sapiens) (UniProt Q9Y2H1). In words: Selectivity interaction (KinomeScan (DiscoverX)) EUB0000229b STK38L. The note with it: at 10 µM.
The subject of assay [4] is T1, Receptor-type tyrosine-protein kinase FLT3 (Homo sapiens), P36888 [K663Q].
T1 sequence (whole entry): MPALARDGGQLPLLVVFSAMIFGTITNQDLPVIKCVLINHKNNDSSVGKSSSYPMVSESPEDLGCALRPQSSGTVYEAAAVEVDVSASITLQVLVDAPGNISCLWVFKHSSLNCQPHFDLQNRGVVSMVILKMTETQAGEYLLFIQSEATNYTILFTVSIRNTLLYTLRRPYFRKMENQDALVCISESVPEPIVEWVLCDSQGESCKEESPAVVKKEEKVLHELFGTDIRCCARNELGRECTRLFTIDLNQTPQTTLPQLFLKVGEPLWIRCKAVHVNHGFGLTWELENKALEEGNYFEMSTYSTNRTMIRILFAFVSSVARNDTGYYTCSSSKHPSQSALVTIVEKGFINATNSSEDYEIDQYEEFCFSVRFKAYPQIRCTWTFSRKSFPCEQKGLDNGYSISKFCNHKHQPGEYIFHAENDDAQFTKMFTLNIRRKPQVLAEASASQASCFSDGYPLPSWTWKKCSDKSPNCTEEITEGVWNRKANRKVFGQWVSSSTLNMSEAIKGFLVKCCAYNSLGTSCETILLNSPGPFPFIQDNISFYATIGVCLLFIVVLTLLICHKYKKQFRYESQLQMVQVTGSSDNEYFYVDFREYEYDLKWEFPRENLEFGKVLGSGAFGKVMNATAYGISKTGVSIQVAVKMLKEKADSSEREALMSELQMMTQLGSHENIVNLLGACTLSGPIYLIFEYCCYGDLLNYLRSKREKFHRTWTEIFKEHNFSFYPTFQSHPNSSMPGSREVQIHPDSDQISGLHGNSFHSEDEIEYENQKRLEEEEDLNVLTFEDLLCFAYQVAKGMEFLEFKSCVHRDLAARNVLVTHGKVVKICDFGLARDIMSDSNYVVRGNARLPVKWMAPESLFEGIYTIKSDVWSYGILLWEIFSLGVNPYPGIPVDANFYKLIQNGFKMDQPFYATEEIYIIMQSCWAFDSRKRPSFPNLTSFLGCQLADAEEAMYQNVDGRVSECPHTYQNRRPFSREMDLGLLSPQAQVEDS
In words: (§1) Selectivity interaction (KinomeScan (DiscoverX)) EUB0000311b FLT3. The conditions noted are these: at 1 µM.

Assay [5] relates to T2, Receptor-type tyrosine-protein kinase FLT3 (Homo sapiens), P36888 [D835V].
T2 sequence (whole entry): T1 sequence (whole entry) with Q663K, D835V
The assay is described as §1. The conditions noted are these: at 1 µM.

Assay [6] deals with Receptor-type tyrosine-protein kinase FLT3 (Homo sapiens), P36888 [UNDEFINED MUTATION]. Described as §1. The note with it: at 1 µM.

Changes are numbered by the printed parent chain.

Serine/threonine-protein kinase 38-like (Homo sapiens), sequence (Q9Y2H1 2-464 limits assumed): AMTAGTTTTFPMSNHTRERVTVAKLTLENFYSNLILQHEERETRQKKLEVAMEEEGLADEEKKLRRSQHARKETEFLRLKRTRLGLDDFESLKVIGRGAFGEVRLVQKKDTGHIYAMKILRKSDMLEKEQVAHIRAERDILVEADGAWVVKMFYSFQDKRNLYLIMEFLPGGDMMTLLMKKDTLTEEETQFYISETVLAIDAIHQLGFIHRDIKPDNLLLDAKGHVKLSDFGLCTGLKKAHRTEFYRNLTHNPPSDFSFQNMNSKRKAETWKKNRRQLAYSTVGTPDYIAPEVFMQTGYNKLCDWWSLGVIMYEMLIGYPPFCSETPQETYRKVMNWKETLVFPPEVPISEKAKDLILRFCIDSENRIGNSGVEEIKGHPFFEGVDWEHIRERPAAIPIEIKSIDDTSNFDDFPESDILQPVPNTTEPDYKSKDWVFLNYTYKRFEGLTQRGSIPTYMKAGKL
Mitogen-activated protein kinase kinase kinase 20 (Homo sapiens), sequence (Q9NYL2 2-800 limits assumed): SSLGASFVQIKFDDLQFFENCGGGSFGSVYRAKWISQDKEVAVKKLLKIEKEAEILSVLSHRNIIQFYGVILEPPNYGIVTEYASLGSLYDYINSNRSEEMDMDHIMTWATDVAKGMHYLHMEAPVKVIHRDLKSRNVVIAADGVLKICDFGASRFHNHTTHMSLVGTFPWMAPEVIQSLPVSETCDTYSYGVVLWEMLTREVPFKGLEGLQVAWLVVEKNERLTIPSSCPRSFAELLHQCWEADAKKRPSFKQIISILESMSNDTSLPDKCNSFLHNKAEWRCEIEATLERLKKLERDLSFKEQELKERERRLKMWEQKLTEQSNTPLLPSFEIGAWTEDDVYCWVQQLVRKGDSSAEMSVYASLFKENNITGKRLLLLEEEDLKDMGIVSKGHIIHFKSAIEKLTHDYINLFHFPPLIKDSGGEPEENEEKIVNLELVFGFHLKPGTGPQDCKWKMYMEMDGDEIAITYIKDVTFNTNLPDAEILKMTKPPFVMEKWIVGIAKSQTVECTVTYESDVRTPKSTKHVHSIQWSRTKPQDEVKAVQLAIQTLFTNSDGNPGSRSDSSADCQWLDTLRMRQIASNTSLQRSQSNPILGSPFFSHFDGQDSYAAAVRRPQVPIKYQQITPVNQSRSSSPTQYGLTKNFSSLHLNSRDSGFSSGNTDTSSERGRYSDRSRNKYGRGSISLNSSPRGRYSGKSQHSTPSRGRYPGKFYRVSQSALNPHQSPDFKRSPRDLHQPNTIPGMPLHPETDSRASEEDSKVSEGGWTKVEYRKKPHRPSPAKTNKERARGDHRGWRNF
D(2) dopamine receptor, sequence (P14416 whole entry): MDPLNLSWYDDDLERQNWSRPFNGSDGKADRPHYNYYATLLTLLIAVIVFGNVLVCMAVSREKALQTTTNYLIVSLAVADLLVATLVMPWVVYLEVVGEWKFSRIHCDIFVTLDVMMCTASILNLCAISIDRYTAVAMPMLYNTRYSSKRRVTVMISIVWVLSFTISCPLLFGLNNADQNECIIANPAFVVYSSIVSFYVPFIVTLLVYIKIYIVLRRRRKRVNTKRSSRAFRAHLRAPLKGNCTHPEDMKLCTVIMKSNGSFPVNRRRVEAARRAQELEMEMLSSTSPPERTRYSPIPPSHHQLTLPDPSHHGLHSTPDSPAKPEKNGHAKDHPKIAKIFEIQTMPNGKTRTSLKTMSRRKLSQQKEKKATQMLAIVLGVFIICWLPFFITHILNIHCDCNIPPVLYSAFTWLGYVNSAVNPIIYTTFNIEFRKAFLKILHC

Turning to `CCN(CC)CCCCNc1ncc2cc(-c3cc(OC)cc(OC)c3)c(NC(=O)NC(C)(C)C)nc2n1`, the % of control in assay [1] was found to be 100%.

In the case of `Nc1cnc(N2CCc3cc(S(=O)(=O)Nc4c(F)cc(Cl)cc4F)cc(N4CCCC4=O)c32)nc1` [TP-020n], in assay [2], the % of inhibition is -0.42%. `COc1cc(N(C)c2ccnc3ccc(C(F)(F)F)cc23)cc(OC)c1OC` displayed a % binding in assay [3] of 87%. On to `CCc1ccccc1C(=O)Nc1n[nH]c2c(C)c(F)c(C3C(C#N)=C(C)N(C)C(C)=C3C#N)cc12` [BAY-3827], for which the figures for the % of control in assay [4], in assay [5] and in assay [6] were 13%, 3.2% and 11%, respectively.
